According to patent publication US11497813B2, “Bortezomib conjugates and methods using same” (Frank EBETINO et al., priority 2015, dated 2022):

System: UPS activation
Assay: Ub^G76V-GFP reporter cells (GFP+ cells) in osteoclast cultures and on pre-incubated bone slices
Assay type: cell-based, mouse
Settings: BM cells from Ub^G76V-GFP mice on bone slices pre-incubated with compound
Method: FIG. 5A is a scheme of an exemplary synthesis of compound BP-Btz1. FIG. 5B is a series of images of bone slices pre-incubated with 1 μM BP-Btz1, Btz, or bisphosphonate (BP) overnight. Drug solutions were removed and bone slices were washed with PBS extensively. […] (BM) cells from UB^G76V-GFP mice were cultured on bone slices in the presence of M-CSF and RANKL for 9 days. Top images (a): GFP^+ cells were observed under a fluorescence microscope and GFP signal intensity was quantified. Middle images (b): bone slices were fixed and subjected to TRAP staining for osteoclasts (OCs). OC #/slice were counted. Bottom images (c): cells were removed from slices. Toluidine blue staining was performed and pit areas/slice were counted. FIG. 5C is a series of images of murine BM cells cultured and stained for ALP. FIG. 5D is a series of images of human MSCs cultured and stained for ALP. Murine BM cells and human MSCs were cultured in the OB-inducing medium plus different concentrations of BP-Btz1 or Btz for 4 or 6 days, respectively. Cells were stained for ALP. The ALP^+ areas were measured by Image J. *P<0.05 vs. Btz-treated cells.
1. Ub^G76V-GFP mice in B6 background (Stock #008111, Jax lab) are generated using previously described methods (Lindsten et al., 2003, Nat. Biotech. 21:897-902). The Ub^G76V-GFP transgene was designed with a chicken beta-actin promoter and CMV immediate early enhancer upstream of a GFP fused to a mutant ubiquitin moiety (Ub^G76V), a constitutively active proteasome degradation signal. Following proteasome inhibitor administration, Ub^G76V accumulates and GFP fluorescence is readily apparent. GFP^+ OCs were detected at 4 and 8 hrs after adding Btz to OC cultures, which disappeared at 24 hrs. […] 2. OC formation and resorption assays and data analyses are performed as described herein (FIG. 4) and using previously described methods (Zhang et al., 2014, J. Clin. Invest. 124:3200-3214; Xiu et al., 2014, J. Clin. Invest. 124:297-310). […] The number and area of OCs and resorption pits are assessed. The appearance, intensity and distribution of GFP^+ cells on bone slices and plastic surrounding bone slices during OC formation is observed and recorded. 3. OB differentiation. Third passages of BM stromal cells are used as MPCs, as previously described (Shu et al., 2013, J. Bone Min. Res. 28:1925-1935; Zhang et al., 2014, J. Clin. Invest. 124:3200-3214). MPCs are cultured on plastic plates in OB-inducing medium±BP-Btz conjugates, Btz or BP (0.1-100 nM) for 1-3 wks. Plates are subjected to alkaline phosphatase (ALP) and alizarin red staining, and qPCR analyses. Area of ALP^+ and mineralized bone nodule, and the expression levels of OB marker genes (ALP, osteocalcin, Runx2) are measured. GFP^+ cells during OB differentiation are observed as in OCs. In a parallel experiment, human MSCs (from Lonza) are treated with BP-Btz, Btz, or BP in OB-inducing medium and their effects examined on OB differentiation as show in FIGS. 5C and 5D. 4. Western blot/Ub assays. OCPs or MPCs are treated with a preferred dose of leading BP-Btz, Btz and BP. OCP lysates are subjected to Western blot using α-NF-κB members and TRAF6 Abs. OB lysates are subjected to Western blot with α-ubiquitin, Runx2, or JunB Abs, and Ub assays using UbiQapture matrix (Biomol) to pull down Ub-proteins followed by α-Runx2 and JunB Abs using previously described methods (Zhao et al., 2010, J. Bone Min. Res. 25:1246-1256; Zhao et al., 2011, Stem cells 29:1601-1610).

## NCC(P(=O)(O)O)P(=O)(O)O [BP]
  GFP+ cells on pre-incubated bone slices: not
